Assay: recombinant UMI read abundance after kanamycin selection (control-corrected) (log10(CPM+1)); higher = more efficient recombination; extreme values may be limits of the assay; sequences stand for … in AGTGCAGAGAAAATCGGCCAGTTTTCTCTGCCTGCAGTCCGCATGCCGTGGGACCCCTTGGGTTCTAACCTGTTGCCTAGATTTATGCAGCGGACTGCCTTTCTCCCAAAGTGATAAACCGG…AGGTTGGTTTCACT; site = the 11-nt donor
In short: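 For the IS621 bridge recombinase, a pooled Escherichia coli screen tested donor and donor-binding-loop pairs. Cells received the pair library together with a target plasmid encoding a fixed target and T7-inducible recombinase, then went onto IPTG (0.07 mM) plus kanamycin or unselected plates in duplicate. After PCR across the donor–target junction and sequencing, recombinant UMI counts were normalized to CPM, averaged, and scaled by control-derived factors. Each value is given as log10(CPM+1).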
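Also: IS621 bridge recombinase in Escherichia coli cells against a fixed T5 target plasmid.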

| Sequence | recombinant UMI read abundance (log10) |
| --- | --- |
| GTAGATACATGGACCGGTTTTCCCGGTAATCCGTATTTGCC (site GTAGATACTGG) | 0 |
| GTAGCGACATGGACCGGTTTTCCCGGTAATCCGTATTTGAG (site GTAGCGACTCT) | 1.28 |
| GTAGGAACATGGACCGGTTTTCCCGGTAATCCGTATTTGAC (site GTAGGAACTGT) | 2.59 |
| GTAGGAACATGGACCGGTTTTCCCGGTAATCCGTATTTGAC (site GTAGGCACTGT) | 1.3 |
| GTAGGAACATGGACCGGTTTTCCCGGTAATCCGTATTTGAC (site GTAGGGACTGT) | 2.24 |
| GTAGGAACATGGACCGGTTTTCCCGGTAATCCGTATTTGAC (site GTAGGTACTGT) | 1.56 |
| GTAGGCACATGGACCGGTTTTCCCGGTAATCCGTATTTGAC (site GTAGGAACTGT) | 1.1 |
| GTAGGCACATGGACCGGTTTTCCCGGTAATCCGTATTTGAC (site GTAGGCACTGT) | 2.05 |
| GTAGGCACATGGACCGGTTTTCCCGGTAATCCGTATTTGAC (site GTAGGGACTGT) | 0 |
| GTAGGCACATGGACCGGTTTTCCCGGTAATCCGTATTTGAC (site GTAGGTACTGT) | 0.00895 |
| GTAGGTACATGGACCGGTTTTCCCGGTAATCCGTATTTGAC (site ATAGGTACTGT) | 2.02 |
| GTAGGTACATGGACCGGTTTTCCCGGTAATCCGTATTTGAC (site CTAGGTACTGT) | 1.95 |
| GTAGGTACATGGACCGGTTTTCCCGGTAATCCGTATTTGAC (site GAAGGTACTGT) | 0 |
| GTAGGTACATGGACCGGTTTTCCCGGTAATCCGTATTTGAC (site GCAGGTACTGT) | 0.704 |
| GTAGGTACATGGACCGGTTTTCCCGGTAATCCGTATTTGAC (site GGAGGTACTGT) | 0 |
| GTAGGTACATGGACCGGTTTTCCCGGTAATCCGTATTTGAC (site GTAAGTACTGT) | 1.98 |
| GTAGGTACATGGACCGGTTTTCCCGGTAATCCGTATTTGAC (site GTACGTACTGT) | 0.584 |
| GTAGGTACATGGACCGGTTTTCCCGGTAATCCGTATTTGAC (site GTAGATACTGT) | 1.54 |
| GTAGGTACATGGACCGGTTTTCCCGGTAATCCGTATTTGAC (site GTAGCTACTGT) | 0.853 |
| GTAGGTACATGGACCGGTTTTCCCGGTAATCCGTATTTGAC (site GTAGGAACTGT) | 1.59 |
| GTAGGTACATGGACCGGTTTTCCCGGTAATCCGTATTTGAC (site GTAGGCACTGT) | 2.64 |
| GTAGGTACATGGACCGGTTTTCCCGGTAATCCGTATTTGAC (site GTAGGGACTGT) | 1.8 |
| GTAGGTACATGGACCGGTTTTCCCGGTAATCCGTATTTGAC (site GTAGGTACTAT) | 2.23 |
| GTAGGTACATGGACCGGTTTTCCCGGTAATCCGTATTTGAC (site GTAGGTACTCT) | 0.304 |
| GTAGGTACATGGACCGGTTTTCCCGGTAATCCGTATTTGAC (site GTAGGTACTGA) | 1.23 |

| Sequence | recombinant UMI read abundance (log10) |
| --- | --- |
| GTAGGTACATGGACCGGTTTTCCCGGTAATCCGTATTTGAC (site GTAGGTACTGC) | 1.5 |
| GTAGGTACATGGACCGGTTTTCCCGGTAATCCGTATTTGAC (site GTAGGTACTGG) | 0.351 |
| GTAGGTACATGGACCGGTTTTCCCGGTAATCCGTATTTGAC (site GTAGGTACTGT) | 2.01 |
| GTAGGTACATGGACCGGTTTTCCCGGTAATCCGTATTTGAC (site GTAGGTACTTT) | 0 |
| GTAGGTACATGGACCGGTTTTCCCGGTAATCCGTATTTGAC (site GTAGGTCCTGT) | 0 |
| GTAGGTACATGGACCGGTTTTCCCGGTAATCCGTATTTGAC (site GTAGGTGCTGT) | 2.02 |
| GTAGGTACATGGACCGGTTTTCCCGGTAATCCGTATTTGAC (site GTAGGTTCTGT) | 1.76 |
| GTAGGTACATGGACCGGTTTTCCCGGTAATCCGTATTTGAC (site GTAGTTACTGT) | 1.2 |
| GTAGGTACATGGACCGGTTTTCCCGGTAATCCGTATTTGAC (site GTATGTACTGT) | 0.986 |
| GTAGGTACATGGACCGGTTTTCCCGGTAATCCGTATTTGAC (site GTCGGTACTGT) | 1.16 |
| GTAGGTACATGGACCGGTTTTCCCGGTAATCCGTATTTGAC (site GTGGGTACTGT) | 2.19 |
| GTAGGTACATGGACCGGTTTTCCCGGTAATCCGTATTTGAC (site GTTGGTACTGT) | 1.96 |
| GTAGGTACATGGACCGGTTTTCCCGGTAATCCGTATTTGAC (site TTAGGTACTGT) | 1.65 |
| GTAGGTACATGGACCGGTTTTCCCGGTAATCCGTATTTGAG (site GTAGGTACTAT) | 0.994 |
| GTAGGTACATGGACCGGTTTTCCCGGTAATCCGTATTTGAG (site GTAGGTACTCT) | 1.29 |
| GTAGGTACATGGACCGGTTTTCCCGGTAATCCGTATTTGAG (site GTAGGTACTGT) | 1.42 |
| GTAGGTACATGGACCGGTTTTCCCGGTAATCCGTATTTGAG (site GTAGGTACTTT) | 0.806 |
| GTAGGTACATGGACCGGTTTTCCCGGTAATCCGTATTTGAT (site GTAGGTACTAT) | 1.87 |
| GTAGGTACATGGACCGGTTTTCCCGGTAATCCGTATTTGAT (site GTAGGTACTCT) | 0.18 |
| GTAGGTACATGGACCGGTTTTCCCGGTAATCCGTATTTGAT (site GTAGGTACTGT) | 0.596 |
| GTAGGTACATGGACCGGTTTTCCCGGTAATCCGTATTTGAT (site GTAGGTACTTT) | 0.00769 |
| GTAGTACCATGGACCGGTTTTCCCGGTAATCCGTATTTGAC (site CTAGTATCTGT) | 0 |
| GTAGTACCATGGACCGGTTTTCCCGGTAATCCGTATTTGAC (site GTAGTACCTGT) | 0 |
| GTAGTCACATGGACCGGTTTTCCCGGTAATCCGTATTTGCG (site GTAGTCACTCG) | 2.1 |
| GTAGTCACATGGACCGGTTTTCCCGGTAATCCGTATTTGCG (site GTAGTCCCTCG) | 0.0197 |

| Sequence | recombinant UMI read abundance (log10) |
| --- | --- |
| GTAGTCACATGGACCGGTTTTCCCGGTAATCCGTATTTGCG (site GTAGTCGCTCG) | 1.67 |
| GTAGTCACATGGACCGGTTTTCCCGGTAATCCGTATTTGCG (site GTAGTCTCTCG) | 2.62 |
| GTAGTGGCATGGACCGGTTTTCCCGGTAATCCGTATTTGCG (site GTAGTAGCTCG) | 2.37 |
| GTAGTGGCATGGACCGGTTTTCCCGGTAATCCGTATTTGCG (site GTAGTCGCTCG) | 1.25 |
| GTAGTGGCATGGACCGGTTTTCCCGGTAATCCGTATTTGCG (site GTAGTGGCTCG) | 2.18 |
| GTAGTGGCATGGACCGGTTTTCCCGGTAATCCGTATTTGCG (site GTAGTTGCTCG) | 2.06 |
| GTATACCCATGGACCGGTTTTCCCGGTAATCCGTATTTGTC (site GTATACCCTGA) | 1.03 |
| GTATAGTCATGGACCGGTTTTCCCGGTAATCCGTATTTGGT (site GTATAGTCTAC) | 2.67 |
| GTATCGTCATGGACCGGTTTTCCCGGTAATCCGTATTTGTC (site GTATCGTCTGA) | 3.21 |
| GTATGACCATGGACCGGTTTTCCCGGTAATCCGTATTTGGC (site GTATGACCTGC) | 0 |
| GTATGCACATGGACCGGTTTTCCCGGTAATCCGTATTTGAA (site GTATGCACTTA) | 0.217 |
| GTATGCACATGGACCGGTTTTCCCGGTAATCCGTATTTGAA (site GTATGCACTTC) | 0.0775 |
| GTATGCACATGGACCGGTTTTCCCGGTAATCCGTATTTGAA (site GTATGCACTTG) | 0.0145 |
| GTATGCACATGGACCGGTTTTCCCGGTAATCCGTATTTGAA (site GTATGCACTTT) | 1.53 |
| GTATGCGCATGGACCGGTTTTCCCGGTAATCCGTATTTGAA (site GTATGCGCTTT) | 1.66 |
| GTATGCGCATGGACCGGTTTTCCCGGTAATCCGTATTTGTA (site GTATGCACTTA) | 1.8 |
| GTATGCGCATGGACCGGTTTTCCCGGTAATCCGTATTTGTA (site GTATGCCCTTA) | 0.772 |
| GTATGCGCATGGACCGGTTTTCCCGGTAATCCGTATTTGTA (site GTATGCGCTTA) | 2.35 |
| GTATGCGCATGGACCGGTTTTCCCGGTAATCCGTATTTGTA (site GTATGCTCTTA) | 1.33 |
| GTATGGACATGGACCGGTTTTCCCGGTAATCCGTATTTGTA (site GTATGAACTTA) | 2.39 |
| GTATGGACATGGACCGGTTTTCCCGGTAATCCGTATTTGTA (site GTATGCACTTA) | 0.0152 |
| GTATGGACATGGACCGGTTTTCCCGGTAATCCGTATTTGTA (site GTATGGACTTA) | 1.9 |
| GTATGGACATGGACCGGTTTTCCCGGTAATCCGTATTTGTA (site GTATGTACTTA) | 0.44 |
| GTCACAACATGGACCGGTTTTCCCGGTAATCCGTATTTGAC (site GTCACAACTGT) | 1.36 |
| GTCACGACATGGACCGGTTTTCCCGGTAATCCGTATTTGAC (site GTCACGACTGT) | 1.96 |
